Experimental data taken from patent US20240108006A1, “PESTICIDALLY ACTIVE HETEROAROMATIC COMPOUNDS” (SYNGENTA CROP PROTECTION AG, priority 2021, published 2024).

Columns and labels:
Format in all cases: in vivo
Chilo suppressalis = experiment: Example B1: Chilo suppressalis (striped rice stemborer), artificial diet, L2 larvae; conditions: 144 h, application rate of 200 ppm, 6 days after infestation, read-out: control in at least one of the three categories (mortality, anti-feedant effect, or growth inhibition)
Method in brief: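 Artificial diet was treated with aqueous test solutions made from 10,000 ppm DMSO stocks, dried, then infested with L2 larvae (6-8 per well). Mortality, anti-feeding effect and growth inhibition were scored against untreated samples 6 days after infestation, and control was counted when any category exceeded untreated.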

Myzus persicae [1] = experiment: Example B5: Myzus persicae (green peach aphid), feeding/contact activity; conditions: 144 h, application rate of 200 ppm, 6 days after infestation
Description: Example B5: Myzus persicae (Green Peach Aphid):Feeding/Contact Activity
Sunflower leaf discs were placed onto agar in a 24-well microtiter plate and sprayed with aqueous test solutions prepared from 10,000 ppm DMSO stock solutions. After drying, the leaf discs were infested with an aphid population of mixed ages. The samples were assessed for mortality 6 days after infestation.

Myzus persicae [2] = experiment: Example B7: Myzus persicae (green peach aphid), intrinsic activity, sucrose solution 24-well; conditions: 120 h, application rate of 12.5 ppm, 5 days after infestation, read-out: control (mortality)
Method in brief: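 Compounds from 10,000 ppm DMSO stocks were mixed into sucrose solution in wells at a rate of 12.5 ppm. Aphid-infested pea seedlings were placed on a Parafilm membrane over the solution, so aphids fed through it. Mortality was scored 5 days after infestation.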

Diabrotica balteata = experiment: Example B2: Diabrotica balteata (corn root worm), maize sprouts, L2 larvae; conditions: 96 h, application rate of 200 ppm, 4 days after infestation, read-out: control in at least one of the two categories (mortality or growth inhibition)
Description: Example B2: Diabrotica balteata (Corn Root Worm)
Maize sprouts placed onto an agar layer in 24-well microtiter plates were treated with aqueous test solutions prepared from 10,000 ppm DMSO stock solutions by spraying. After drying, the plates were infested with L2 larvae (6 to 10 per well). The samples were assessed for mortality and growth inhibition in comparison to untreated samples 4 days after infestation.
(§1) The following compounds gave an effect of at least 80% control in at least one of the two categories (mortality or growth inhibition) at an application rate of 200 ppm: […]

Plutella xylostella = experiment: Example B8: Plutella xylostella (diamond back moth), artificial diet 24-well, eggs; conditions: 192 h, application rate of 200 ppm, 8 days after infestation, read-out: effect in at least one of the two categories (mortality or growth inhibition)
Method in brief: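 Artificial diet in 24-well plates treated with aqueous dilutions of DMSO stock (10,000 ppm stock) and dried, then infested with Plutella eggs. Mortality and growth inhibition scored versus untreated samples 8 days after infestation.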

Spodoptera littoralis = experiment: Example B9: Spodoptera littoralis (Egyptian cotton leaf worm), cotton leaf discs, L1 larvae; conditions: foliar, 72 h, application rate of 200 ppm, 3 days after infestation, read-out: control in at least one of the three categories (mortality, anti-feedant effect, or growth inhibition)
Method in brief: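 Cotton leaf discs on agar sprayed with aqueous test solutions from 10,000 ppm DMSO stocks, dried, then infested with five L1 larvae. Mortality, anti-feeding and growth inhibition scored against untreated samples 3 days after infestation.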

Euschistus heros = experiment: Example B3: Euschistus heros (neotropical brown stink bug), soybean leaves, N2 nymphs; conditions: 120 h, application rate of 200 ppm, 5 days after infestation, read-out: control in at least one of the two categories (mortality or growth inhibition)
Description: Example B3: Euschistus heros (Neotropical Brown Stink Bug)
Soybean leaves on agar in 24-well microtiter plates were sprayed with aqueous test solutions prepared from 10,000 ppm DMSO stock solutions. After drying the leaves were infested with N2 nymphs. The samples were assessed for mortality and growth inhibition in comparison to untreated samples 5 days after infestation.
as §1

Cc1cc(F)c(OS(C)(=O)=O)cc1NC(=O)N[C@@H](C)c1ncnn1-c1ncccn1 [Example P181, [2-fluoro-4-methyl-5-[[(1S)-1-(2-pyrimidin-2-yl-1,2,4-triazol-3-yl)ethyl]carbamoylamino]phenyl] methanesulfonate]
≥ 80%: percent control (mortality, anti-feedant effect or growth inhibition) at 200 ppm (Chilo suppressalis) | mortality at 200 ppm (Myzus persicae [1]) | mortality at 12.5 ppm (Myzus persicae [2])

C[C@H](NC(=O)N(C)c1cc(OC(F)(F)C(F)F)c(Cl)cc1Cl)c1ncnn1-c1ncccn1 [Example P176, 1-[2,4-dichloro-5-(1,1,2,2-tetrafluoroethoxy)phenyl]-1-methyl-3-[(1S)-1-(2-pyrimidin-2-yl-1,2,4-triazol-3-yl)ethyl]urea]
≥ 80%: percent control (mortality or growth inhibition) at 200 ppm (Diabrotica balteata) | percent control (mortality, anti-feedant effect or growth inhibition) at 200 ppm (Chilo suppressalis) | mortality at 200 ppm (Myzus persicae [1]) | percent effect (mortality or growth inhibition) at 200 ppm (Plutella xylostella) | mortality at 12.5 ppm (Myzus persicae [2]) | percent control (mortality, anti-feedant effect or growth inhibition) at 200 ppm (Spodoptera littoralis)

C[C@H](NC(=O)Nc1cc(C(F)(F)F)c(Br)cc1Br)c1ncnn1-c1ncccn1 [Example P205, 1-[2,4-dibromo-5-(trifluoromethyl)phenyl]-3-[(1S)-1-(2-pyrimidin-2-yl-1,2,4-triazol-3-yl)ethyl]urea]
≥ 80%: percent control (mortality or growth inhibition) at 200 ppm (Diabrotica balteata) | percent control (mortality, anti-feedant effect or growth inhibition) at 200 ppm (Chilo suppressalis) | mortality at 200 ppm (Myzus persicae [1]) | percent effect (mortality or growth inhibition) at 200 ppm (Plutella xylostella) | mortality at 12.5 ppm (Myzus persicae [2]) | percent control (mortality, anti-feedant effect or growth inhibition) at 200 ppm (Spodoptera littoralis)

C[C@H](NC(=O)Nc1cc(OC(F)(F)C(F)F)c(Cl)cc1Cl)c1nccnc1-c1ncccn1 [Example P135, 1-[2,4-dichloro-5-(1,1,2,2-tetrafluoroethoxy)phenyl]-3-[(1S)-1-(3-pyrimidin-2-ylpyrazin-2-yl)ethyl]urea]
≥ 80%: percent control (mortality or growth inhibition) at 200 ppm (Diabrotica balteata) | percent control (mortality, anti-feedant effect or growth inhibition) at 200 ppm (Chilo suppressalis) | mortality at 200 ppm (Myzus persicae [1]) | percent effect (mortality or growth inhibition) at 200 ppm (Plutella xylostella) | mortality at 12.5 ppm (Myzus persicae [2]) | percent control (mortality, anti-feedant effect or growth inhibition) at 200 ppm (Spodoptera littoralis)

C[C@H](NC(=O)Nc1cc2c(cc1Cl)C(=O)N(C)C2=O)c1ncnn1-c1ncccn1 [Example P207, 1-(6-chloro-2-methyl-1,3-dioxo-isoindolin-5-yl)-3-[(1S)-1-(2-pyrimidin-2-yl-1,2,4-triazol-3-yl)ethyl]urea]
≥ 80%: mortality at 200 ppm (Myzus persicae [1])

C[C@H](NC(=O)Nc1cc(C(C)(C)C#N)c(Cl)cc1F)c1ncnn1-c1ncccn1 [Example P202, 1-[4-chloro-5-(1-cyano-1-methyl-ethyl)-2-fluoro-phenyl]-3-[(1S)-1-(2-pyrimidin-2-yl-1,2,4-triazol-3-yl)ethyl]urea]
≥ 80%: percent control (mortality, anti-feedant effect or growth inhibition) at 200 ppm (Chilo suppressalis) | mortality at 200 ppm (Myzus persicae [1]) | percent effect (mortality or growth inhibition) at 200 ppm (Plutella xylostella) | mortality at 12.5 ppm (Myzus persicae [2]) | percent control (mortality, anti-feedant effect or growth inhibition) at 200 ppm (Spodoptera littoralis)

C[C@H](NC(=O)Nc1ccnn1-c1ccc(Cl)cn1)c1ncnn1-c1ncccn1 [Example P17, 1-[2-(5-chloro-2-pyridyl)pyrazol-3-yl]-3-[(1S)-1-(2-pyrimidin-2-yl-1,2,4-triazol-3-yl)ethyl]urea]
≥ 80%: mortality at 200 ppm (Myzus persicae [1])

C[C@@H](c1ncnn1-c1ncccn1)N1COCN(c2cc(OC(F)(F)C(F)F)c(Cl)cc2Cl)C1=O [Example P137, 3-[2,4-dichloro-5-(1,1,2,2-tetrafluoroethoxy)phenyl]-5-[(1S)-1-(2-pyrimidin-2-yl-1,2,4-triazol-3-yl)ethyl]-1,3,5-oxadiazinan-4-one]
≥ 80%: percent control (mortality or growth inhibition) at 200 ppm (Diabrotica balteata) | percent control (mortality, anti-feedant effect or growth inhibition) at 200 ppm (Chilo suppressalis) | mortality at 200 ppm (Myzus persicae [1]) | percent effect (mortality or growth inhibition) at 200 ppm (Plutella xylostella) | mortality at 12.5 ppm (Myzus persicae [2]) | percent control (mortality, anti-feedant effect or growth inhibition) at 200 ppm (Spodoptera littoralis)

C[C@H](NC(=O)Nc1cnc(Br)cc1Br)c1ncnn1-c1ccc(C#N)cn1 [Example P255, 1-[(1S)-1-[2-(5-cyano-2-pyridyl)-1,2,4-triazol-3-yl]ethyl]-3-(4,6-dibromo-3-pyridyl)urea]
≥ 80%: percent control (mortality or growth inhibition) at 200 ppm (Euschistus heros) | percent control (mortality, anti-feedant effect or growth inhibition) at 200 ppm (Chilo suppressalis) | percent effect (mortality or growth inhibition) at 200 ppm (Plutella xylostella) | percent control (mortality, anti-feedant effect or growth inhibition) at 200 ppm (Spodoptera littoralis)

C[C@H](NC(=O)Nc1ccc(Br)cc1OC(F)F)c1ncnn1-c1ncccn1 [Example P58, 1-[4-bromo-2-(difluoromethoxy)phenyl]-3-[(1S)-1-(2-pyrimidin-2-yl-1,2,4-triazol-3-yl)ethyl]urea]
≥ 80%: percent control (mortality or growth inhibition) at 200 ppm (Diabrotica balteata) | percent control (mortality, anti-feedant effect or growth inhibition) at 200 ppm (Chilo suppressalis) | mortality at 200 ppm (Myzus persicae [1]) | percent effect (mortality or growth inhibition) at 200 ppm (Plutella xylostella) | mortality at 12.5 ppm (Myzus persicae [2]) | percent control (mortality, anti-feedant effect or growth inhibition) at 200 ppm (Spodoptera littoralis)

C[C@@H](c1ncnn1-c1ncccn1)N(C)C(=O)N(C)c1cc(OC(F)(F)C(F)F)c(Cl)cc1Cl [Example P132, 1-[2,4-dichloro-5-(1,1,2,2-tetrafluoroethoxy)phenyl]-1,3-dimethyl-3-[(1S)-1-(2-pyrimidin-2-yl-1,2,4-triazol-3-yl)ethyl]urea]
≥ 80%: percent control (mortality or growth inhibition) at 200 ppm (Diabrotica balteata) | percent control (mortality, anti-feedant effect or growth inhibition) at 200 ppm (Chilo suppressalis) | mortality at 200 ppm (Myzus persicae [1]) | percent effect (mortality or growth inhibition) at 200 ppm (Plutella xylostella) | mortality at 12.5 ppm (Myzus persicae [2]) | percent control (mortality, anti-feedant effect or growth inhibition) at 200 ppm (Spodoptera littoralis)

C[C@@H](c1ncnn1-c1ncccn1)N(C)C(=O)Nc1cc(OC(F)(F)C(F)F)c(Cl)cc1Cl [Example P133, 3-[2,4-dichloro-5-(1,1,2,2-tetrafluoroethoxy)phenyl]-1-methyl-1-[(1S)-1-(2-pyrimidin-2-yl-1,2,4-triazol-3-yl)ethyl]urea]
≥ 80%: percent control (mortality or growth inhibition) at 200 ppm (Diabrotica balteata) | percent control (mortality, anti-feedant effect or growth inhibition) at 200 ppm (Chilo suppressalis) | mortality at 200 ppm (Myzus persicae [1]) | percent effect (mortality or growth inhibition) at 200 ppm (Plutella xylostella) | mortality at 12.5 ppm (Myzus persicae [2]) | percent control (mortality, anti-feedant effect or growth inhibition) at 200 ppm (Spodoptera littoralis)

C[C@H](NC(=O)Nc1cc(C(F)(F)F)n(C)n1)c1ncnn1-c1ncccn1 [Example P108, 1-[1-methyl-5-(trifluoromethyl)pyrazol-3-yl]-3-[(1S)-1-(2-pyrimidin-2-yl-1,2,4-triazol-3-yl)ethyl]urea]
≥ 80%: mortality at 200 ppm (Myzus persicae [1])

C[C@H](NC(=O)Nc1ccc(C(F)(F)F)nc1Cl)c1ncnn1-c1ncccn1 [Example P18, 1-[2-chloro-6-(trifluoromethyl)-3-pyridyl]-3-[(1S)-1-(2-pyrimidin-2-yl-1,2,4-triazol-3-yl)ethyl]urea]
≥ 80%: percent control (mortality or growth inhibition) at 200 ppm (Euschistus heros) | mortality at 12.5 ppm (Myzus persicae [2]) | percent control (mortality, anti-feedant effect or growth inhibition) at 200 ppm (Spodoptera littoralis)

C[C@H](NC(=O)Nc1cc(OC(F)(F)C(F)F)c(Cl)cc1Cl)c1ncnn1-c1cnccn1 [Example P278, 1-[2,4-dichloro-5-(1,1,2,2-tetrafluoroethoxy)phenyl]-3-[(1S)-1-(2-pyrazin-2-yl-1,2,4-triazol-3-yl)ethyl]urea]
≥ 80%: percent control (mortality or growth inhibition) at 200 ppm (Diabrotica balteata) | percent control (mortality, anti-feedant effect or growth inhibition) at 200 ppm (Chilo suppressalis) | mortality at 200 ppm (Myzus persicae [1]) | percent effect (mortality or growth inhibition) at 200 ppm (Plutella xylostella) | mortality at 12.5 ppm (Myzus persicae [2]) | percent control (mortality, anti-feedant effect or growth inhibition) at 200 ppm (Spodoptera littoralis)

C[C@H](NC(=O)Nc1cc(C(F)(F)F)cc(C(F)(F)F)n1)c1ncnn1-c1ncccn1 [Example P91, 1-[4,6-bis(trifluoromethyl)-2-pyridyl]-3-[(1S)-1-(2-pyrimidin-2-yl-1,2,4-triazol-3-yl)ethyl]urea]
≥ 80%: mortality at 200 ppm (Myzus persicae [1])

C[C@H](NC(=O)Nc1cc(OCc2cccc(Br)n2)c(Cl)cc1Cl)c1ncnn1-c1ncccn1 [Example P145, 1-[5-[(6-bromo-2-pyridyl)methoxy]-2,4-dichloro-phenyl]-3-[(1S)-1-(2-pyrimidin-2-yl-1,2,4-triazol-3-yl)ethyl]urea]
≥ 80%: mortality at 200 ppm (Myzus persicae [1])

C[C@H](NC(=O)Nc1cc(C#N)c(F)cc1F)c1ncnn1-c1ncccn1 [Example P391, 1-(5-cyano-2,4-difluoro-phenyl)-3-[(1S)-1-(2-pyrimidin-2-yl-1,2,4-triazol-3-yl)ethyl]urea]
≥ 80%: percent control (mortality or growth inhibition) at 200 ppm (Euschistus heros) | percent control (mortality, anti-feedant effect or growth inhibition) at 200 ppm (Chilo suppressalis) | mortality at 12.5 ppm (Myzus persicae [2])
